This note sets out measurements from US9274101B2 (BIOLOG, Inc., priority 2001, dated 2016).

For one experiment, the system named is E. coli (MG1655). The experiment in a line: Sensitivity in ES1, ES2, ES3 MICROPLATE panels in the presence of vancomycin or sulfamethoxazole (synergy/antagonism). Format: cell-based, Escherichia coli.
The test system of another experiment is TK-1 cells. The experiment in a line: TK-1 cells in PM1 and PM2 plates, with or without 0.5 mM sodium pyruvate. Format: cell-based, mouse. As to the method: In this Example, methods for testing a murine T lymphoma cells (Butcher et al., Eur. J. Immunol., 10:556-561 [1980]), for their ability to use multiple carbon sources are described. The methods used to culture the TK-1 lymphoma cell line were similar to those used to culture HL-60 cells, as described in Example 27.
TK-1 cells were grown in Falcon tissue culture flasks with vented tops. Culture medium was RPMI 1640 medium (Invitrogen 11875) with 4.5 g/L glucose, 2 mM L-glutamine, 1 mM sodium pyruvate, 0.1 mM nonessential amino acids (NEAA), 0.05 mM 2-mercaptoethanol (2ME), 2 g/L sodium bicarbonate, 5 mg/L phenol red, 50 U/mL penicillin, 50 μg/mL streptomycin, and 10% (v/v) heat inactivated fetal bovine serum (HI FBS, Invitrogen 16140). The cells were seeded at 3×10^5/mL, subcultured at 3 days after initiation of culture to 10^6 cells/mL and used 24 hours later. During all incubations, the cells were kept in an atmosphere of 5% CO2, 90-100% humidity, and 37° C.
A viable cell count was obtained by trypan blue exclusion and an appropriate volume of the cell suspension was placed in a polypropylene centrifuge tube. The cells were washed in DPBS and then resuspended to two-thirds the final volume needed in Dulbecco ? s Modified Eagle ? s Medium (DME, Sigma D5030) with the supplements listed in Table 17, as well as 2-ME, sodium pyruvate and NEAA, and including 10% HI FBS, but without glucose, L-glutamine, sodium pyruvate, and phenol red. This medium is termed DME-RTK. An aliquot was counted by trypan blue exclusion and the cell density was adjusted to 1×10^6/mL. Fifty μL of DME-RTK were added to each well of the appropriate number of half area, 96-well plates (PM1 and PM2 MICROPLATE testing plates). The cells were divided into two lots and one lot received a 1/100 dilution of 100 mM sodium pyruvate (final concentration, 0.5 mM). Cells from both lots were plated at a final cell density of 5×10^4/well (50 μL/well). For each plate containing chemicals and cells, a second, control plate containing only chemicals was prepared. Plates were incubated at 5% CO2, 90-100% humidity, and 37° C. for 1 hour prior to addition of the MTS/MPMS colorimetric reagent (5 μL/well). The color formed in each well 24 hours after addition of the colorimetric reagent, was measured with a plate reader at 490 nm with a reference wavelength of 650 nm. OD values from the control plate were subtracted from the OD values obtained with cells prior to normalizing the data to % negative control.

The subject of experiment [1] is E. coli MG1655. The experiment in a line: PM kinetic profiles of antimicrobials, S-O-R scoring and dendrogram. It is filed as cell-based, Escherichia coli.
Experiment [2] deals with E. coli MG1655. Format: cell-based, Escherichia coli.
The subject of experiment [3] is E. coli MG1655. Format: cell-based, Escherichia coli. The source holds these as a separate data set.
Experiment [4] concerns Salmonella typhimurium auxotrophs hisF645 and pyrCΔ73. Format: cell-based.
[5] abbreviates: in the presence of 235 μg/ml sulfamethoxazole.
Setting [6] is: in the presence of 10 μg/ml vancomycin.
The mark [7] stands for this setting: in the presence of 0.5 mM sodium pyruvate.
Setting [8] is: 1× level of each antimicrobial, 7 PMs, 48 hours.

Like-named read-outs stand apart in the source and are kept apart here. Where a SMILES comes first, the peptide text is derived from it. Bridges are numbered along the chain shown (N, C = ends). [ ]: non-standard residue; d: D form. The star is where a group is joined. Ileψ(thiazoline)Cys = CC[C@H](C)[C@H](N)C1=N[C@H](C(=O)*)CS1; dOrn = NCCC[C@@H](N)C(=O)O

On to `NC(=O)c1cc[n+](CC2=C(C(=O)O)N3C(=O)[C@@H](NC(=O)[C@@H](c4ccccc4)S(=O)(=O)[O-])[C@H]3SC2)cc1` [cefsulodin], for which the “change of sensitivity to the panel compound” value (“change of sensitivity” for short) in the experiment on E. coli (MG1655) (setting [5]) is reported as “increased sensitivity”. With `CC(=O)O[C@H]1C[C@@]2(C)[C@@H](C[C@@H](O)[C@H]3[C@@]4(C)CC[C@@H](O)[C@@H](C)[C@@H]4CC[C@@]32C)/C1=C(\CCC=C(C)C)C(=O)O` [fusidic acid], in the experiment on E. coli (MG1655) (setting [6]), the “change of sensitivity” value is on record as “increased sensitivity”. Consider `CO[C@@H]1OC[C@@H](O)[C@H](O)[C@H]1O` [β-methyl xyloside], for which the “response of TK-1 cells” value in the experiment on TK-1 cells (setting [7]) was “gained responses”. As for pectin, in the experiment on TK-1 cells (setting [7]), the “response of TK-1 cells” value is given as “gained responses”. Consider coumermycin, for which, in the experiment on E. coli MG1655 [1], the “position in dendrogram of PM response profiles (FIG. 9)” value (“position in dendrogram” below) is recorded as “clustered”. Still for that read-out and setting: with polymyxin B the entry was “more closely resembled the multiple target antimicrobials”. For `[Cl][Cr]([Cl])[Cl]` [chromium chloride], the “change of sensitivity” value in the experiment on E. coli (MG1655) was “increased sensitivity”.

For the molecule `CCn1cc(C(=O)O)c(=O)c2ccc(C)nc21` [nalidixic acid], the “change of sensitivity” value in the experiment on E. coli (MG1655) is recorded as “increased sensitivity”. In the experiment on E. coli MG1655 [1], the “position in dendrogram” value was “did not cluster with the other two DNA gyrase inhibiting chemicals”. Take `CC[C@H](C)[C@H](N)C1=N[C@H](C(=O)N[C@@H](CC(C)C)C(=O)N[C@H](CCC(=O)O)C(=O)N[C@H](C(=O)N[C@H]2CCCCNC(=O)[C@H](CC(N)=O)NC(=O)[C@@H](CC(=O)O)NC(=O)[C@H](Cc3cnc[nH]3)NC(=O)[C@@H](Cc3ccccc3)NC(=O)[C@H]([C@@H](C)CC)NC(=O)[C@@H](CCCN)NC2=O)[C@@H](C)CC)CS1` [bacitracin] ({Ileψ(thiazoline)Cys}-L[dE]IK[dOrn]I[dF]H[dD]N; lactam 4-C): the “position in dendrogram” value with E. coli MG1655 [1] (setting [8]) is reported as “cluster”. For `[Cl][Ni][Cl]` [nickel chloride], the “change of sensitivity” value with E. coli (MG1655) is listed as “increased sensitivity”. The same measure, in the same setting: with `[Cl][Co][Cl]` [cobalt chloride] the entry was “increased sensitivity”. As to `NCCC[C@H](N)C(=O)O` [L-ornithine], in the experiment on E. coli MG1655 [2], the “suitability as nitrogen source (growth, purple color)” value (“suitability as nitrogen source” below) is “not suitable”. In the experiment with TK-1 cells (setting [7]), the “response of TK-1 cells” value is on record as “lost responses”. Take `O=C(O)c1ccc(O)cc1` [4-hydroxy-benzoic acid]: the “response of TK-1 cells” value in the experiment on TK-1 cells (setting [7]) is listed as “gained responses”. Same read-out and setting: then `OC[C@H]1O[C@@H](Oc2ccc(O)cc2)[C@H](O)[C@@H](O)[C@@H]1O` [arbutin], with “gained responses”. In the case of `N[C@@H](C(=O)N[C@@H]1C(=O)N2C(C(=O)O)=C(Cl)CS[C@H]12)c1ccccc1` [cefaclor], in the experiment on E. coli (MG1655) (setting [5]), the “change of sensitivity” value is on record as “increased sensitivity”. With `Nc1ccn([C@@H]2O[C@H](CO)[C@@H](OP(=O)(O)O)[C@H]2O)c(=O)n1` [cytidine 3′-monophosphate], the “suitability as phosphorus source (growth, purple color)” value (“suitability as phosphorus source” below) in the experiment with E. coli MG1655 [3] was “positive”. Moreover, the “growth stimulation (well color)” value in experiment [4] is “turned purple”. With `C/C=C/C/C=C/CCC(=O)[C@H]1O[C@H]1C(N)=O` [cerulenin], the “position in dendrogram” value in the experiment on E. coli MG1655 [1] (setting [8]) is reported as “more closely resembled the multiple target antimicrobials”. As to `CO[C@@H]1[C@@H](OC(N)=O)[C@@H](O)[C@H](Oc2ccc3c(O)c(NC(=O)c4ccc(O)c(CC=C(C)C)c4)c(=O)oc3c2C)OC1(C)C` [novobiocin], the “change of sensitivity” value in the experiment with E. coli (MG1655) was “increased resistance”; in the experiment with E. coli (MG1655) (setting [6]) it was “increased sensitivity”. With `O=c1ccn([C@@H]2O[C@H](COP(=O)(O)O)[C@@H](O)[C@H]2O)c(=O)[nH]1` [uridine 5′-monophosphate], the “suitability as phosphorus source” value with E. coli MG1655 [3] was “positive”. In addition, in experiment [4], the “growth stimulation (well color)” value was “turned purple”. `Nc1ccc(S(=O)(=O)Nc2nccs2)cc1` [sulfathiazole]: the “position in dendrogram” value with E. coli MG1655 [1] (setting [8]) is on record as “more closely resembled the multiple target antimicrobials”. Regarding `O=c1ccn([C@@H]2O[C@H](CO)[C@@H](OP(=O)(O)O)[C@H]2O)c(=O)[nH]1` [uridine 3′-monophosphate], the “suitability as phosphorus source” value with E. coli MG1655 [3] is on record as “positive”. The “growth stimulation (well color)” value in experiment [4] is reported as “turned purple”.

For `O=C(O)CCCCCCCCC(=O)O` [sebacic acid], the “response of TK-1 cells” value in the experiment on TK-1 cells (setting [7]) is “gained responses”. `Nc1nc2c(ncn2[C@@H]2O[C@H](CO)[C@@H](O)[C@H]2OP(=O)(O)O)c(=O)[nH]1` [guanosine 2′-monophosphate]: the “suitability as phosphorus source” value in the experiment on E. coli MG1655 [3] is given as “positive”. In experiment [4], the “growth stimulation (well color)” value was “turned weakly purple”.

In the case of `Cc1nnc(SCC2=C(C(=O)O)N3C(=O)[C@@H](NC(=O)Cn4cnnn4)[C@H]3SC2)s1` [cefazolin], the “change of sensitivity” value in the experiment on E. coli (MG1655) (setting [6]) and in the experiment with E. coli (MG1655) (setting [5]) was “increased sensitivity” in each case. Take `[H]/N=C(/N)N[C@H]1[C@H](O)[C@@H](O)[C@H](O[C@@H]2O[C@@H](C)[C@](O)(C=O)[C@H]2O[C@@H]2O[C@@H](CO)[C@H](O)[C@@H](O)[C@@H]2NC)[C@@H](N/C(N)=N\[H])[C@@H]1O` [streptomycin]: the “position in dendrogram” value with E. coli MG1655 [1] (setting [8]) is reported as “cluster”.

On to `O=[N+]([O-])c1ncc[nH]1` [azomycin], for which, in the experiment with E. coli (MG1655), the “change of sensitivity” value is “increased sensitivity”. With `Nc1ncnc2c1ncn2[C@@H]1O[C@H](CO)[C@@H](O)[C@H]1OP(=O)(O)O` [adenosine-2′-monophosphate], the “suitability as phosphorus source” value in the experiment with E. coli MG1655 [3] is reported as “positive”. Also, the “growth stimulation (well color)” value in experiment [4] was “turned weakly purple”. The like results for `Nc1ccn([C@@H]2O[C@H](COP(=O)(O)O)[C@@H](O)[C@H]2O)c(=O)n1` [cytidine 5′-monophosphate] were, in that order, “positive” and “turned purple”.

As for `Nc1ccn([C@@H]2O[C@H](CO)[C@@H](O)[C@H]2OP(=O)(O)O)c(=O)n1` [cytidine 2′-monophosphate], in the experiment on E. coli MG1655 [3], the “suitability as phosphorus source” value is recorded as “not suitable”. Further, the “growth stimulation (well color)” value in experiment [4] is recorded as “turned purple”. As for `O=C(O)CCCO` [γ-hydroxybutyric acid], the “response of TK-1 cells” value with TK-1 cells was “lost responses”.

As for `COc1cc(Cc2cnc(N)nc2N)cc(OC)c1OC` [trimethoprim], the “change of sensitivity” value with E. coli (MG1655) (setting [6]) and in the experiment with E. coli (MG1655) (setting [5]) was “increased sensitivity” throughout.

For `CO[C@@]1(NC(=O)Cc2cccs2)C(=O)N2C(C(=O)O)=C(COC(N)=O)CS[C@@H]21` [cefoxitin], in the experiment with E. coli (MG1655) (setting [6]), the “change of sensitivity” value is “increased sensitivity”. Regarding `N[C@@H](Cc1ccccc1)C(=O)O` [L-phenylalanine], in the experiment on E. coli MG1655 [2], the “suitability as nitrogen source” value is “not suitable”. Moreover, in the experiment on TK-1 cells (setting [7]), the “response of TK-1 cells” value is reported as “gained responses”. Regarding `N[C@@H](CCO)C(=O)O` [L-homoserine], the “suitability as nitrogen source” value in the experiment on E. coli MG1655 [2] is “not suitable”. Besides, the “response of TK-1 cells” value in the experiment on TK-1 cells (setting [7]) is “lost responses”.

Regarding `C[C@@H]1O[C@@H]1P(=O)(O)O` [phosphomycin], in the experiment on E. coli MG1655 [1] (setting [8]), the “position in dendrogram” value is on record as “cluster”.

As for `O=C(Cc1cccs1)N[C@@H]1C(=O)N2C(C(=O)[O-])=C(C[n+]3ccccc3)CS[C@H]12` [cephaloridine], in the experiment with E. coli (MG1655) (setting [5]), the “change of sensitivity” value is “increased sensitivity”. Consider `Nc1ncnc2c1ncn2[C@@H]1O[C@H](CO)[C@@H](OP(=O)(O)O)[C@H]1O` [adenosine 3-monophosphate], for which the “suitability as phosphorus source” value with E. coli MG1655 [3] was “positive”. In experiment [4], the “growth stimulation (well color)” value is given as “turned weakly purple”. With `CC(=O)OCC1=C(C(=O)O)N2C(=O)[C@@H](NC(=O)Cc3cccs3)[C@H]2SC1` [cephalothin], the “change of sensitivity” value in the experiment with E. coli (MG1655) (setting [6]) and in the experiment on E. coli (MG1655) (setting [5]) was “increased sensitivity” throughout. For the same molecule, in the experiment on E. coli MG1655 [1] (setting [8]), the “position in dendrogram” value was “cluster”. As for `CCn1cc(C(=O)O)c(=O)c2cc3c(cc21)OCO3` [oxolinic acid], the “position in dendrogram” value in the experiment with E. coli MG1655 [1] (setting [8]) was “clustered”.
